In ChEMBL document CHEMBL1131974, “Asymmetric synthesis and antitumor activity of cycloalkanin” (1999):

Assays:
[1] = tested on: A549; assay: In vitro cytotoxic activity against A549 tumor cell line by SRB assay at 72 hour at a concentration 10E-6 (M/L); type: functional, Homo sapiens
[2] = tested on: P388; assay: In vitro cytotoxic activity against P388 tumor cell line by MTT assay at 48 hour at a concentration 10E-4 (M/L); type: functional, Mus musculus
[3] = tested on: A549; assay: In vitro cytotoxic activity against A549 tumor cell line by SRB assay at 72 hour at a concentration 10E-5 (M/L); type: functional, Homo sapiens
[4] = tested on: A549; assay: In vitro cytotoxic activity against A549 tumor cell line by SRB assay at 72 hour at a concentration 10E-4 (M/L); type: functional, Homo sapiens
[5] = tested on: P388; assay: In vitro cytotoxic activity against P388 tumor cell line by MTT assay at 48 hour at a concentration 10E-8 (M/L); type: functional, Mus musculus
[6] = tested on: A549; assay: In vitro cytotoxic activity against A549 tumor cell line by SRB assay at 72 hour at a concentration 10E-7 (M/L); type: functional, Homo sapiens
[7] = tested on: A549; assay: In vitro cytotoxic activity against A549 tumor cell line by SRB assay at 72 hour at a concentration 10E-8 (M/L); type: functional, Homo sapiens
[8] = tested on: P388; assay: In vitro cytotoxic activity against P388 tumor cell line by MTT assay at 48 hour at a concentration 10E-6 (M/L); type: functional, Mus musculus
[9] = tested on: P388; assay: In vitro cytotoxic activity against P388 tumor cell line by MTT assay at 48 hour at a concentration 10E-5 (M/L); type: functional, Mus musculus
[10] = tested on: P388; assay: In vitro cytotoxic activity against P388 tumor cell line by MTT assay at 48 hour at a concentration 10E-7 (M/L); type: functional, Mus musculus

Structure (SMILES): CC1(C)CC[C@H](C2=CC(=O)c3c(O)ccc(O)c3C2=O)O1
- Inhibition [1]: 24.7%
- Inhibition [2]: 98.9%
- Inhibition [3]: 93.5%
- Inhibition [4]: 92.5%
- Inhibition [5]: 98.9%
- Inhibition [6]: 14%
- Inhibition [7]: 0%
- Inhibition [8]: 98.9%
- Inhibition [9]: 98.9%
- Inhibition [10]: 98.9%
